Assay results from ChEMBL document CHEMBL1201862, “PubChem BioAssay data set” (2004).
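Dose response: 5 concentrations. Exposure: 48 h. Format: 96-well plates. Endpoint: linear interpolation; highest concentration if not reached. GI50 = concentration required for 50% inhibition of growth.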 Activity calls are given as the source filed them. Rule as the data show it: active = GI50 up to about 1.1 µM and inactive = higher.

Columns and labels:
Assay in all cases: DTP human tumour cell line panel, 48 h
OVCAR-4 = system: OVCAR-4
HCT-116 = system: HCT-116
UO-31 = system: UO-31
KM12 = system: KM12
SK-MEL-28 = system: SK-MEL-28
OVCAR-8 = system: OVCAR-8
HL-60 = system: HL-60
T47D = system: T47D
UACC-62 = system: UACC-62
HOP-92 = system: HOP-92
DU-145 = system: DU-145
PC-3 = system: PC-3
NCI-H226 = system: NCI-H226
HT-29 = system: HT-29
COLO 205 = system: COLO 205
NCI-H460 = system: NCI-H460
A549 = system: A549
M14 = system: M14
EKVX = system: EKVX
Malme-3M = system: Malme-3M
KM-20L2 = system: KM-20L2
U-251 = system: U-251
DMS-273 = system: DMS-273
A498 = system: A498
SNB-19 = system: SNB-19
SK-MEL-5 = system: SK-MEL-5
OVCAR-3 = system: OVCAR-3
DLD-1 = system: DLD-1
K562 = system: K562
HOP-62 = system: HOP-62
OVCAR-5 = system: OVCAR-5
ACHN = system: ACHN
SF-295 = system: SF-295
NCI-H23 = system: NCI-H23
MDA-MB-435 = system: MDA-MB-435
786-0 = system: 786-0
M19-MEL = system: M19-MEL
SN12C = system: SN12C
SNB-75 = system: SNB-75
LOX IMVI = system: LOX IMVI
CAKI-1 = system: CAKI-1
SF-268 = system: SF-268
SK-MEL-2 = system: SK-MEL-2
DMS-114 = system: DMS-114
MDA-MB-231 = system: MDA-MB-231
NCI-H522 = system: NCI-H522
TK-10 = system: TK-10
SF-539 = system: SF-539
NCI/ADR-RES = system: NCI/ADR-RES
RXF 393 = system: RXF 393
HCC 2998 = system: HCC 2998
CCRF-CEM = system: CCRF-CEM
RXF 631 = system: RXF 631
MDA-N = system: MDA-N
MOLT-4 = system: MOLT-4
MCF7 = system: MCF7
LXFL 529 = system: LXFL 529
UACC-257 = system: UACC-257
SR = system: SR
RPMI-8226 = system: RPMI-8226
HCT-15 = system: HCT-15
Hs-578T = system: Hs-578T
IGROV-1 = system: IGROV-1
SW-620 = system: SW-620
XF498 = system: XF498
BT-549 = system: BT-549

COc1cc(C[C@H]2c3cc(OC)c(OC)cc3CCN2C)c(Oc2cc3c(cc2OC)-c2c(OC)c(OC)cc4c2[C@H](C3)N(C)CC4)cc1OC [THALICARPINE]
GI50 (OVCAR-4): 8.3 µM (inactive) | GI50 (HCT-116): 4.83 µM (inactive) | GI50 (UO-31): 4.66 µM (inactive) | GI50 (KM12): 5.18 µM (inactive) | GI50 (SK-MEL-28): 4.02 µM (inactive) | GI50 (OVCAR-8): 7.43 µM (inactive) | GI50 (HL-60): 2.84 µM (inactive) | GI50 (T47D): 10.1 µM (inactive) | GI50 (UACC-62): 6.65 µM (inactive) | GI50 (HOP-92): 1.78 µM (inactive) | GI50 (DU-145): 14 µM (inactive) | GI50 (PC-3): 4.93 µM (inactive) | GI50 (NCI-H226): 6.58 µM (inactive) | GI50 (HT-29): 5.66 µM (inactive) | GI50 (COLO 205): 5.75 µM (inactive) | GI50 (NCI-H460): 9.16 µM (inactive) | GI50 (A549): 11.9 µM (inactive) | GI50 (M14): 1.52 µM (inactive) | GI50 (EKVX): 12.9 µM (inactive) | GI50 (Malme-3M): 9.44 µM (inactive) | GI50 (KM-20L2): 4.53 µM (inactive) | GI50 (U-251): 3.9 µM (inactive) | GI50 (DMS-273): 10.7 µM (inactive) | GI50 (A498): 7.06 µM (inactive) | GI50 (SNB-19): 16.7 µM (inactive) | GI50 (SK-MEL-5): 3.28 µM (inactive) | GI50 (OVCAR-3): 10.5 µM (inactive) | GI50 (DLD-1): 15.1 µM (inactive) | GI50 (K562): 4.88 µM (inactive) | GI50 (HOP-62): 10.6 µM (inactive) | GI50 (OVCAR-5): 10.5 µM (inactive) | GI50 (ACHN): 12.9 µM (inactive) | GI50 (SF-295): 10.1 µM (inactive) | GI50 (NCI-H23): 12.4 µM (inactive) | GI50 (MDA-MB-435): 5.16 µM (inactive) | GI50 (786-0): 3.52 µM (inactive) | GI50 (M19-MEL): 8.87 µM (inactive) | GI50 (SN12C): 12.4 µM (inactive) | GI50 (SNB-75): 7.03 µM (inactive) | GI50 (LOX IMVI): 7.21 µM (inactive) | GI50 (CAKI-1): 6.22 µM (inactive) | GI50 (SF-268): 9.98 µM (inactive) | GI50 (SK-MEL-2): 10 µM (inactive) | GI50 (DMS-114): 9.1 µM (inactive) | GI50 (MDA-MB-231): 4.13 µM (inactive) | GI50 (NCI-H522): 6.89 µM (inactive) | GI50 (TK-10): 3.61 µM (inactive) | GI50 (SF-539): 8.28 µM (inactive) | GI50 (NCI/ADR-RES): 11.3 µM (inactive) | GI50 (RXF 393): 3.05 µM (inactive) | GI50 (HCC 2998): 7.6 µM (inactive) | GI50 (CCRF-CEM): 8.99 µM (inactive) | GI50 (RXF 631): 5.52 µM (inactive) | GI50 (MDA-N): 4.13 µM (inactive) | GI50 (MOLT-4): 6.25 µM (inactive) | GI50 (MCF7): 12.2 µM (inactive) | GI50 (LXFL 529): 11 µM (inactive) | GI50 (UACC-257): 5.13 µM (inactive) | GI50 (SR): 5.08 µM (inactive) | GI50 (RPMI-8226): 8.04 µM (inactive) | GI50 (HCT-15): 5.04 µM | GI50 (Hs-578T): 2.99 µM (inactive) | GI50 (IGROV-1): 10.8 µM (inactive) | GI50 (SW-620): 7.53 µM (inactive) | GI50 (XF498): 8.97 µM (inactive) | GI50 (BT-549): 6.52 µM (inactive)
